{
  "source": "BindingDB's records for doi:10.3109/14756366.2011.651464",
  "about": "(Ege University, 2013)",
  "assay_in_all_cases": "Esterase Activity Assay",
  "conditions_in_all_cases": "pH 7.4",
  "key": {"Carbonic anhydrase 3": {"molecular_target": "T1, Carbonic anhydrase 3 (Bos taurus, UniProt Q3SZX4)", "T1 sequence (Q3SZX4 whole entry)": "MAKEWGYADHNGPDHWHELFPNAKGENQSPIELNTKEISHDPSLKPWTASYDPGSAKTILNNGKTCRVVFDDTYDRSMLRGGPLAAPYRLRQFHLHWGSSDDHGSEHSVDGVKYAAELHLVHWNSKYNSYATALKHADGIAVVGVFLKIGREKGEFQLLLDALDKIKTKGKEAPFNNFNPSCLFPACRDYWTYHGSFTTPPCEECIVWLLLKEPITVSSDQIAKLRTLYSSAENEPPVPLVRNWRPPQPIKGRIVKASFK"}, "Carbonic anhydrase 1": {"molecular_target": "Carbonic anhydrase 1 (Homo sapiens, UniProt P00915)", "sequence (P00915 whole entry)": "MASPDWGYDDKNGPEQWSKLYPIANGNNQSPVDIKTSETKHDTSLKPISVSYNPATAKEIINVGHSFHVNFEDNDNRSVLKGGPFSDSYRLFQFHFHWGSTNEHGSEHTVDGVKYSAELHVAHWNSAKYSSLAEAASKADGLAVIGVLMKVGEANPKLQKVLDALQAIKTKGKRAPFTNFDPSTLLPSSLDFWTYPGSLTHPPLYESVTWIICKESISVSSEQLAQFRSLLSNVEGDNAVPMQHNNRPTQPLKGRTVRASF"}, "Carbonic anhydrase 6": {"molecular_target": "Carbonic anhydrase 6 (Homo sapiens, UniProt P23280)", "sequence (P23280 whole entry)": "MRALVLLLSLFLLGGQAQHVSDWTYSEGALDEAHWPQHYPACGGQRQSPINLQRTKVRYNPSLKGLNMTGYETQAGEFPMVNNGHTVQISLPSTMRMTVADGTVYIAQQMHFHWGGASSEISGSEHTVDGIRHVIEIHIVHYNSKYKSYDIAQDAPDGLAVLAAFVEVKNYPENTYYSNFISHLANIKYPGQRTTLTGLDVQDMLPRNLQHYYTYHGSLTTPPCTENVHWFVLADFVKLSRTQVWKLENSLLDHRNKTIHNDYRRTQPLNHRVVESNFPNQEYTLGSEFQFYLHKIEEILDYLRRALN"}, "Carbonic anhydrase 4": {"molecular_target": "Carbonic anhydrase 4 (Homo sapiens, UniProt P22748)", "sequence (P22748 whole entry)": "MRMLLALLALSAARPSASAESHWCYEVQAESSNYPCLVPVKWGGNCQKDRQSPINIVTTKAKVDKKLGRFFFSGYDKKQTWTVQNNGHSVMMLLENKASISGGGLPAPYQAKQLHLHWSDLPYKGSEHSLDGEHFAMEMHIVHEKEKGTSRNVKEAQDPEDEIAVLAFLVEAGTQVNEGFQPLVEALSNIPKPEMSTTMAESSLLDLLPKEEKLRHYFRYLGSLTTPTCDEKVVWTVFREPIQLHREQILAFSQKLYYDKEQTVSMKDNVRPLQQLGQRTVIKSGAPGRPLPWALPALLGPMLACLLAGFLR"}, "Carbonic anhydrase 2": {"molecular_target": "Carbonic anhydrase 2 (Homo sapiens, UniProt P00918)"}},
  "data": [
    {"molecule": "Oc1cc(O)c2c(c1)O[C@H](c1ccc(O)c(O)c1)[C@@H](O)C2", "note": "[(+)-Catechin]", "values": [
      {"measurement": "Ki", "setting": "Carbonic anhydrase 3", "result": 9710, "unit": "nM"}
    ]},
    {"molecule": "CC(C)(O)[C@@H]1CC[C@](C)([C@H]2[C@@H](O)C[C@@]3(C)C4C[C@H](O[C@@H]5OC[C@@H](O)C(O)[C@@H]5O)C5C(C)(C)[C@@H](O[C@@H]6OC[C@@H](O)C(O)[C@@H]6O)CC[C@@]56C[C@@]46CC[C@]23C)O1", "note": "(stereo partly drawn) [α-CA inhibitor, 10]", "values": [
      {"measurement": "Ki", "setting": "Carbonic anhydrase 1", "result": 2210, "unit": "nM"},
      {"measurement": "Ki", "setting": "Carbonic anhydrase 6", "result": 9780, "unit": "nM"},
      {"measurement": "Ki", "setting": "Carbonic anhydrase 3", "result": 2490, "unit": "nM"},
      {"measurement": "Ki", "setting": "Carbonic anhydrase 4", "result": 4360, "unit": "nM"},
      {"measurement": "Ki", "setting": "Carbonic anhydrase 2", "result": 1280, "unit": "nM"}
    ]},
    {"molecule": "Oc1cc(O)c2c(c1)O[C@H](c1ccc(O)c(O)c1)[C@H](O)C2", "values": [
      {"measurement": "Ki", "setting": "Carbonic anhydrase 1", "result": 2320, "unit": "nM"},
      {"measurement": "Ki", "setting": "Carbonic anhydrase 6", "result": 4360, "unit": "nM"},
      {"measurement": "Ki", "setting": "Carbonic anhydrase 3", "result": 8930, "unit": "nM"},
      {"measurement": "Ki", "setting": "Carbonic anhydrase 4", "result": 3980, "unit": "nM"},
      {"measurement": "Ki", "setting": "Carbonic anhydrase 2", "result": 1240, "unit": "nM"}
    ]},
    {"molecule": "CC(C)(O)[C@@H]1CC[C@](C)([C@H]2[C@@H](O)C[C@@]3(C)C4C[C@H](O[C@@H]5OC(CO)[C@@H](O)C(O)[C@@H]5O)C5C(C)(C)[C@@H](O[C@@H]6OC[C@@H](O)C(O)[C@@H]6O)CC[C@@]56C[C@@]46CC[C@]23C)O1", "note": "(stereo partly drawn) [α-CA inhibitor, 8]", "values": [
      {"measurement": "Ki", "setting": "Carbonic anhydrase 1", "result": 1470, "unit": "nM"},
      {"measurement": "Ki", "setting": "Carbonic anhydrase 6", "result": 6960, "unit": "nM"},
      {"measurement": "Ki", "setting": "Carbonic anhydrase 3", "result": 1930, "unit": "nM"},
      {"measurement": "Ki", "setting": "Carbonic anhydrase 4", "result": 2750, "unit": "nM"},
      {"measurement": "Ki", "setting": "Carbonic anhydrase 2", "result": 970, "unit": "nM"}
    ]},
    {"molecule": "O=c1c(O)c(-c2ccc(O)c(O)c2)oc2cc(O)cc(O)c12", "note": "[2-(3,4-dihydroxyphenyl)-3,5,7-trihydroxy-chromone;hydrate]", "values": [
      {"measurement": "Ki", "setting": "Carbonic anhydrase 3", "result": 3730, "unit": "nM"}
    ]},
    {"molecule": "CC(C)(O)[C@@H]1CC[C@](C)([C@H]2[C@@H](O)C[C@@]3(C)C4C[C@H](O[C@@H]5OC(CO)[C@@H](O)C(O)[C@@H]5O)C5C(C)(C)[C@@H](O[C@@H]6OC[C@@H](O)C(O)[C@@H]6O[C@@H]6OC[C@H](O)C(O)[C@@H]6O)CC[C@@]56C[C@@]46CC[C@]23C)O1", "note": "(stereo partly drawn) [α-CA inhibitor, 7]", "values": [
      {"measurement": "Ki", "setting": "Carbonic anhydrase 1", "result": 940, "unit": "nM"},
      {"measurement": "Ki", "setting": "Carbonic anhydrase 6", "result": 4710, "unit": "nM"},
      {"measurement": "Ki", "setting": "Carbonic anhydrase 3", "result": 1380, "unit": "nM"},
      {"measurement": "Ki", "setting": "Carbonic anhydrase 4", "result": 2410, "unit": "nM"},
      {"measurement": "Ki", "setting": "Carbonic anhydrase 2", "result": 470, "unit": "nM"}
    ]},
    {"molecule": "Oc1cccc(O)c1", "values": [
      {"measurement": "Ki", "setting": "Carbonic anhydrase 3", "result": 196000, "unit": "nM"}
    ]},
    {"molecule": "Oc1ccccc1O", "note": "[1,2-Dihydroxybenzene, XI]", "values": [
      {"measurement": "Ki", "setting": "Carbonic anhydrase 3", "result": 5790, "unit": "nM"}
    ]}
  ]
}
